Assay results: PMC3462244 (2012)

Biological target: cannabinoid receptor subtype 2 (CB2) (Homo sapiens, UniProt P34972)
Assay: [3H]CP-55940 radioligand competition binding, CHO-CB2 cell membranes

Chain of cannabinoid receptor subtype 2 (CB2) (P34972 whole entry): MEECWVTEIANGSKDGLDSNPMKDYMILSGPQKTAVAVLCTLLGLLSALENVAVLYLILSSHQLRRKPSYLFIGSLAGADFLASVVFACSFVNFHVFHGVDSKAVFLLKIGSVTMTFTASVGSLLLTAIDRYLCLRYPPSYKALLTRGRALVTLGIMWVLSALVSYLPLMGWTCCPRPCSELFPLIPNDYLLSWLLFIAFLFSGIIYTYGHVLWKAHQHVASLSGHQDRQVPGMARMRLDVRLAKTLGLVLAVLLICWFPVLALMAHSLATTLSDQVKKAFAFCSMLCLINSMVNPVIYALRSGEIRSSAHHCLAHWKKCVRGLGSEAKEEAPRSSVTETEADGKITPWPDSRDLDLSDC

| SMILES | Ki [nM] | Experimental pKi [pKi] |
| --- | --- | --- |
| COC(=O)C1(C)CCCC2(C)c3cc(O)c(C(C)C)cc3CCC12 (stereo not shown) [compound 49888, NSC49888] | 6.7 |  |
| COc1ccc2c(c1)CCC1=C2CC2C(=O)C1(C)CCC2(C)OC(C)=O (stereo not shown) [compound 76301, NSC76301] |  | 5.42 |
| COc1ccc2c(c1)c1c(C)c3cnccc3c(C)c1n2CCCN1C(=O)c2ccccc2C1=O [compound 174122, NSC174122] |  | 5.59 |
| CC(=O)OC1CC2C3(C)CCC4C(C)(C)CCCC4(C)C3CC(O)C2(C)C2C1=COC2OC(C)=O (stereo not shown) [compound 369049, NSC369049] |  | 5.51 |
